Data: PubChem BioAssay AID1259407 (Chemical Carcinogenesis Research Information System (CCRIS), 2018)
The source made the active and inactive calls. No rule for the calls is given here.

Tested on: CCRIS mutagenicity, Ames/micronucleus/aberration tests
Experiment: CCRIS mutagenicity studies
[1] = Test System: AMES SALMONELLA TYPHIMURIUM, Strain/Indicator: TA97, Metabolic Activation: NONE, Method: PREINCUBATION
[2] = Test System: AMES SALMONELLA TYPHIMURIUM, Strain/Indicator: TA98, Metabolic Activation: NONE, Method: PREINCUBATION
[3] = Test System: AMES SALMONELLA TYPHIMURIUM, Strain/Indicator: TA100, Metabolic Activation: NONE, Method: PREINCUBATION
[4] = Test System: AMES SALMONELLA TYPHIMURIUM, Strain/Indicator: TA102, Metabolic Activation: NONE, Method: PREINCUBATION
[5] = Test System: AMES SALMONELLA TYPHIMURIUM, Strain/Indicator: TA104, Metabolic Activation: NONE, Method: PREINCUBATION
[6] = Test System: AMES SALMONELLA TYPHIMURIUM, Strain/Indicator: TA100, Metabolic Activation: NONE, Method: STANDARD PLATE

SMILES: O=C1C=C(S(=O)(=O)O)c2ccccc2C1=O
- mutagenic call [1]: inactive; negative
- mutagenic call (Test System: AMES SALMONELLA TYPHIMURIUM, Strain/Indicator: TA97, Metabolic Activation: RAT, LIVER, S-9, PHENOBARBITAL AND 5,6-BENZOFLAVONE, Method: PREINCUBATION): inactive; negative
- mutagenic call [2]: inactive; negative
- mutagenic call (Test System: AMES SALMONELLA TYPHIMURIUM, Strain/Indicator: TA98, Metabolic Activation: RAT, LIVER, S-9, PHENOBARBITAL AND 5,6-BENZOFLAVONE, Method: PREINCUBATION): inactive; negative
- mutagenic call [3]: active; positive
- mutagenic call (Test System: AMES SALMONELLA TYPHIMURIUM, Strain/Indicator: TA100, Metabolic Activation: RAT, LIVER, S-9, PHENOBARBITAL AND 5,6-BENZOFLAVONE, Method: PREINCUBATION): inactive; negative
- mutagenic call [4]: inactive; negative
- mutagenic call (Test System: AMES SALMONELLA TYPHIMURIUM, Strain/Indicator: TA102, Metabolic Activation: RAT, LIVER, S-9, PHENOBARBITAL AND 5,6-BENZOFLAVONE, Method: PREINCUBATION): inactive; negative
- mutagenic call [5]: active; positive
- mutagenic call (Test System: AMES SALMONELLA TYPHIMURIUM, Strain/Indicator: TA104, Metabolic Activation: RAT, LIVER, S-9, PHENOBARBITAL AND 5,6-BENZOFLAVONE, Method: PREINCUBATION): inactive; negative
- mutagenic call (Test System: AMES SALMONELLA TYPHIMURIUM, Strain/Indicator: TA1535, Metabolic Activation: NONE, Method: PREINCUBATION): inactive; negative
- mutagenic call (Test System: AMES SALMONELLA TYPHIMURIUM, Strain/Indicator: TA1535, Metabolic Activation: RAT, LIVER, S-9, PHENOBARBITAL AND 5,6-BENZOFLAVONE, Method: PREINCUBATION): inactive; negative
- mutagenic call (Test System: AMES SALMONELLA TYPHIMURIUM, Strain/Indicator: TA1537, Metabolic Activation: NONE, Method: PREINCUBATION): inactive; negative
- mutagenic call (Test System: AMES SALMONELLA TYPHIMURIUM, Strain/Indicator: TA1537, Metabolic Activation: RAT, LIVER, S-9, PHENOBARBITAL AND 5,6-BENZOFLAVONE, Method: PREINCUBATION): inactive; negative
- mutagenic call (Test System: AMES SALMONELLA TYPHIMURIUM, Strain/Indicator: TA1538, Metabolic Activation: NONE, Method: PREINCUBATION): inactive; negative
- mutagenic call (Test System: AMES SALMONELLA TYPHIMURIUM, Strain/Indicator: TA1538, Metabolic Activation: RAT, LIVER, S-9, PHENOBARBITAL AND 5,6-BENZOFLAVONE, Method: PREINCUBATION): inactive; negative
- mutagenic call (Test System: AMES SALMONELLA TYPHIMURIUM, Strain/Indicator: TA2637, Metabolic Activation: NONE, Method: PREINCUBATION): active; positive
- mutagenic call (Test System: AMES SALMONELLA TYPHIMURIUM, Strain/Indicator: TA2637, Metabolic Activation: RAT, LIVER, S-9, PHENOBARBITAL AND 5,6-BENZOFLAVONE, Method: PREINCUBATION): inactive; negative

SMILES: CC(C)(C)c1cc(O)ccc1O
- mutagenic call (Test System: AMES SALMONELLA TYPHIMURIUM, Strain/Indicator: TA97, Metabolic Activation: HAMSTER, LIVER, S-9, AROCLOR 1254 (10%), Method: PREINCUBATION): inactive; negative
- mutagenic call (Test System: AMES SALMONELLA TYPHIMURIUM, Strain/Indicator: TA97, Metabolic Activation: HAMSTER, LIVER, S-9, AROCLOR 1254 (30%), Method: PREINCUBATION): inactive; negative
- mutagenic call [1]: inactive; negative
- mutagenic call (Test System: AMES SALMONELLA TYPHIMURIUM, Strain/Indicator: TA97, Metabolic Activation: NONE, Method: STANDARD PLATE): inactive; negative
- mutagenic call (Test System: AMES SALMONELLA TYPHIMURIUM, Strain/Indicator: TA97, Metabolic Activation: RAT, LIVER, S-9, AROCLOR 1254 (10%), Method: PREINCUBATION): inactive; negative
- mutagenic call (Test System: AMES SALMONELLA TYPHIMURIUM, Strain/Indicator: TA97, Metabolic Activation: RAT, LIVER, S-9, AROCLOR 1254 (30%), Method: PREINCUBATION): inactive; negative
- mutagenic call (Test System: AMES SALMONELLA TYPHIMURIUM, Strain/Indicator: TA97, Metabolic Activation: RAT, LIVER, S-9, AROCLOR, Method: STANDARD PLATE): inactive; negative
- mutagenic call (Test System: AMES SALMONELLA TYPHIMURIUM, Strain/Indicator: TA97, Metabolic Activation: RAT, LIVER, S-9, PCB, Method: PREINCUBATION): inactive; negative
- mutagenic call (Test System: AMES SALMONELLA TYPHIMURIUM, Strain/Indicator: TA98, Metabolic Activation: HAMSTER, LIVER, S-9, AROCLOR 1254 (10%), Method: PREINCUBATION): inactive; negative
- mutagenic call (Test System: AMES SALMONELLA TYPHIMURIUM, Strain/Indicator: TA98, Metabolic Activation: HAMSTER, LIVER, S-9, AROCLOR 1254 (30%), Method: PREINCUBATION): inactive; negative
- mutagenic call [2]: inactive; negative
- mutagenic call (Test System: AMES SALMONELLA TYPHIMURIUM, Strain/Indicator: TA98, Metabolic Activation: RAT, LIVER, S-9, AROCLOR 1254 (10%), Method: PREINCUBATION): inactive; negative
- mutagenic call (Test System: AMES SALMONELLA TYPHIMURIUM, Strain/Indicator: TA98, Metabolic Activation: RAT, LIVER, S-9, AROCLOR 1254 (30%), Method: PREINCUBATION): inactive; negative
- mutagenic call (Test System: AMES SALMONELLA TYPHIMURIUM, Strain/Indicator: TA98, Metabolic Activation: RAT, LIVER, S-9, PCB, Method: PREINCUBATION): inactive; negative
- mutagenic call (Test System: AMES SALMONELLA TYPHIMURIUM, Strain/Indicator: TA100, Metabolic Activation: HAMSTER, LIVER, S-9, AROCLOR 1254 (10%), Method: PREINCUBATION): inactive; negative
- mutagenic call (Test System: AMES SALMONELLA TYPHIMURIUM, Strain/Indicator: TA100, Metabolic Activation: HAMSTER, LIVER, S-9, AROCLOR 1254 (30%), Method: PREINCUBATION): inactive; negative
- mutagenic call [3]: inactive; negative
- mutagenic call [6]: inactive; negative
- mutagenic call (Test System: AMES SALMONELLA TYPHIMURIUM, Strain/Indicator: TA100, Metabolic Activation: RAT, LIVER, S-9, AROCLOR 1254 (10%), Method: PREINCUBATION): inactive; negative
- mutagenic call (Test System: AMES SALMONELLA TYPHIMURIUM, Strain/Indicator: TA100, Metabolic Activation: RAT, LIVER, S-9, AROCLOR 1254 (30%), Method: PREINCUBATION): inactive; negative
- mutagenic call (Test System: AMES SALMONELLA TYPHIMURIUM, Strain/Indicator: TA100, Metabolic Activation: RAT, LIVER, S-9, AROCLOR, Method: STANDARD PLATE): inactive; negative
- mutagenic call (Test System: AMES SALMONELLA TYPHIMURIUM, Strain/Indicator: TA100, Metabolic Activation: RAT, LIVER, S-9, PCB, Method: PREINCUBATION): inactive; negative
- mutagenic call (Test System: AMES SALMONELLA TYPHIMURIUM, Strain/Indicator: TA102, Metabolic Activation: HAMSTER, LIVER, S-9, AROCLOR 1254 (10%), Method: PREINCUBATION): inactive; negative
- mutagenic call (Test System: AMES SALMONELLA TYPHIMURIUM, Strain/Indicator: TA102, Metabolic Activation: HAMSTER, LIVER, S-9, AROCLOR 1254 (30%), Method: PREINCUBATION): inactive; negative
- mutagenic call [4]: inactive; negative
- mutagenic call (Test System: AMES SALMONELLA TYPHIMURIUM, Strain/Indicator: TA102, Metabolic Activation: NONE, Method: STANDARD PLATE): inactive; negative
- mutagenic call (Test System: AMES SALMONELLA TYPHIMURIUM, Strain/Indicator: TA102, Metabolic Activation: RAT, LIVER, S-9, AROCLOR 1254 (10%), Method: PREINCUBATION): inactive; negative
- mutagenic call (Test System: AMES SALMONELLA TYPHIMURIUM, Strain/Indicator: TA102, Metabolic Activation: RAT, LIVER, S-9, AROCLOR 1254 (30%), Method: PREINCUBATION): inactive; negative
- mutagenic call (Test System: AMES SALMONELLA TYPHIMURIUM, Strain/Indicator: TA102, Metabolic Activation: RAT, LIVER, S-9, AROCLOR, Method: STANDARD PLATE): inactive; negative
- mutagenic call (Test System: AMES SALMONELLA TYPHIMURIUM, Strain/Indicator: TA102, Metabolic Activation: RAT, LIVER, S-9, PCB, Method: PREINCUBATION): inactive; negative
- mutagenic call [5]: inactive; negative
- mutagenic call (Test System: AMES SALMONELLA TYPHIMURIUM, Strain/Indicator: TA104, Metabolic Activation: NONE, Method: STANDARD PLATE): inactive; negative
- mutagenic call (Test System: AMES SALMONELLA TYPHIMURIUM, Strain/Indicator: TA104, Metabolic Activation: RAT, LIVER, S-9, AROCLOR, Method: PREINCUBATION): inactive; negative
- mutagenic call (Test System: AMES SALMONELLA TYPHIMURIUM, Strain/Indicator: TA104, Metabolic Activation: RAT, LIVER, S-9, AROCLOR, Method: STANDARD PLATE): inactive; negative

SMILES: NC(CO)C(=O)NNCc1ccc(O)c(O)c1O (stereo not given)
- mutagenic call [6]: active; positive
- mutagenic call (Test System: AMES SALMONELLA TYPHIMURIUM, Strain/Indicator: TA100, Metabolic Activation: RAT, LIVER, S-9, PHENOBARBITAL, Method: STANDARD PLATE): active; positive
- mutagenic call (Test System: UDS RAT HEPATOCYTES, Strain/Indicator: THY INCORP, Metabolic Activation: NONE, Method: AUTORADIOGRAPHY): inactive; negative
